Columns and labels:
[1] = target: T1, efflux protein (Escherichia coli, UniProt P02980); assay: everted membrane vesicle assay, blocking activity of 13-S-derivatives; assay type: biochemical; conditions: blocking activity against the efflux protein, everted membrane vesicle assay
T1 sequence (P02980 1-401): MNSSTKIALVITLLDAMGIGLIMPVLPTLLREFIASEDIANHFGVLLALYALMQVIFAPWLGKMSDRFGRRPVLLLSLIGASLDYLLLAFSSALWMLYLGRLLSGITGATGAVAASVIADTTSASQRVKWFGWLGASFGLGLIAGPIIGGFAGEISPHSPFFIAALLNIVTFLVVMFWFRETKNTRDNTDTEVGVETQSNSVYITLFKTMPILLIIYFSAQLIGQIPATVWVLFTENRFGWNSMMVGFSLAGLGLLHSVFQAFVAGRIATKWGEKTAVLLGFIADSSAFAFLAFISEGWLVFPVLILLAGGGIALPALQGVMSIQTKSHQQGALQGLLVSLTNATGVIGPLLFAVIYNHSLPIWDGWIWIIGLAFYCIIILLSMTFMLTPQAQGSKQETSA

[2] = tested on: E. coli Class A Tc^r (DI-299); assay type: cell-based; conditions: drug alone; for MLC: kills 99.9%
[3] = tested on: E. faecalis Tc^r (L) ATCC9790r/Tell.); assay: susceptibility testing MIC/MLC, drug alone; assay type: cell-based; conditions: Tc^r (L) ATCC9790r/Tell.), drug alone
[4] = tested on: E. coli Class B Tc^r (DI-209); assay type: cell-based; conditions: drug alone; for MLC: kills 99.9%
[5] = tested on: E. coli Tc^s (MI 308-226); assay: susceptibility testing MIC/MLC, drug alone; assay type: cell-based; conditions: Tc^s (MI 308-226), drug alone; for MLC: kills 99.9%
[6] = tested on: E. faecalis Tc^s (ATCC9790r); assay: susceptibility testing MIC/MLC, drug alone; assay type: cell-based
[7] = tested on: E. faecalis Tc^r(M) (ATCC09790r/TelM); assay type: cell-based; conditions: drug alone
[8] = tested on: S. aureus 4250 (Tet K); assay: MIC/MLC chart, analog with and without doxycycline; assay type: cell-based
[9] = tested on: E. faecalis 158 (Tet L); assay: MIC/MLC chart, analog with and without doxycycline; assay type: cell-based
[10] = tested on: E. coli DI-299 (Tet A); assay: MIC/MLC chart, analog with and without doxycycline; assay type: cell-based; parameters: key to growth/killing, Analog + Doxy / growth/killing, Doxy Control / growth/killing, Analog Control / growth in MIC/MLC chart: +=growth; 0=no growth (MIC); ↓=killing; ? =99.9% killing (MLC); □=no growth, but no microbiologic testing;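 note: bacterial growth inhibition and killing in broth, each agent tested alone or combined with doxycycline across two-fold serial dilutions, overnight incubation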
[11] = tested on: E. faecalis 211 (Tet M); assay: MIC/MLC chart, analog with and without doxycycline; assay type: cell-based
[12] = Analog Control: analog alone .195 μg/ml
[13] = analog .195 μg/ml + doxycycline 1.56 μg/ml
[14] = Analog Control: analog alone .39 μg/ml
[15] = Analog Control: analog alone .78 μg/ml
[16] = analog .195 μg/ml + doxycycline 3.12 μg/ml
[17] = Analog Control: analog alone 1.56 μg/ml
[18] = analog 1.56 μg/ml + doxycycline 1.55 μg/ml
[19] = analog 1.56 μg/ml + doxycycline 3.1 μg/ml
[20] = analog 1.56 μg/ml + doxycycline 6.2 μg/ml
[21] = analog .195 μg/ml + doxycycline 6.25 μg/ml
[22] = analog .195 μg/ml + doxycycline 12.5 μg/ml
[23] = analog .39 μg/ml + doxycycline 1.56 μg/ml
[24] = analog .39 μg/ml + doxycycline 3.12 μg/ml
[25] = analog .39 μg/ml + doxycycline 6.25 μg/ml
[26] = analog .39 μg/ml + doxycycline 12.5 μg/ml
[27] = analog .78 μg/ml + doxycycline 1.56 μg/ml
[28] = analog .78 μg/ml + doxycycline 3.12 μg/ml
[29] = analog .78 μg/ml + doxycycline 6.23 μg/ml
[30] = Doxy Control: doxycycline alone 1.56 μg/ml
[31] = Doxy Control: doxycycline alone 3.12 μg/ml
[32] = Doxy Control: doxycycline alone 6.25 μg/ml
[33] = Doxy Control: doxycycline alone 12.5 μg/ml

Compound: CC(C)CSCC1c2cccc(O)c2C(=O)C2=C(O)C3(O)C(=O)C(C(N)=O)=C(O)C(N(C)C)C3C(O)C21 (centres unmarked) [Isobutyl]
- Ki [1]: 0.188 µM

Compound: CCCCCCCCCCSCC1c2cccc(O)c2C(=O)C2=C(O)C3(O)C(=O)C(C(N)=O)=C(O)C(N(C)C)C3C(O)C21 (centres unmarked) [Decyl]
- Ki [1]: 8.0 µg/mL

Compound: CN(C)C1C(O)=C(C(N)=O)C(=O)C2(O)C(O)=C3C(=O)c4c(O)cccc4C(CSC(C)(C)C)C3C(O)C12 (centres unmarked) [t-Butyl]
- Ki [1]: 0.3 µg/mL

Compound: CN(C)C1C(O)=C(C(N)=O)C(=O)C2(O)C(O)=C3C(=O)c4c(O)cccc4C(C)(O)C3CC12 (centres unmarked) [Tetracycline, 4-(Dimethylamino)-1,4,4a,5,5a,6-11,12a-octahydro-3,6,10,12,12a-pentahydroxy-6-methyl-1-11-dioxo-2-naphthacenecarboxamide, reference compound]
- Ki [1]: 9 to 18 µM
- MIC [2]: 150 ± 0.25 µg
- MLC [2]: 200 µg
- MIC [3]: 90 ± 10 µg
- MIC [4]: >200 µg
- MLC [4]: >200 µg
- MIC [5]: 0.6 ± 0.26 µg
- MLC [5]: 40 ± 0.26 µg
- MIC [6]: 0.25 µg
- MIC [7]: 100 µg

Compound: CC(C)SCC1c2cccc(O)c2C(=O)C2=C(O)C3(O)C(=O)C(C(N)=O)=C(O)C(N(C)C)C3C(O)C21 (centres unmarked) [Isopropyl]
- Ki [1]: 0.771 µM
- MIC [2]: 45 ± 6 µg
- MLC [2]: 60 µg
- MIC [3]: 3 ± 1 µg
- MIC [4]: 35 ± 6 µg
- MLC [4]: 46 ± 16 µg
- MIC [5]: 22 ± 2 µg
- MLC [5]: 50 µg
- MIC [6]: 3 ± 1 µg

Compound: CCCCCCSCC1c2cccc(O)c2C(=O)C2=C(O)C3(O)C(=O)C(C(N)=O)=C(O)C(N(C)C)C3C(O)C21 (centres unmarked) [Hexyl]
- Ki [1]: 5.53 µM

Compound: CCCSCC1c2cccc(O)c2C(=O)C2=C(O)C3(O)C(=O)C(C(N)=O)=C(O)C(N(C)C)C3C(OC(=O)CC)C21 (centres unmarked) [Cmpd 13-propyl-thio-5-proprionate]
- growth in MIC/MLC chart [8, 12]: +
- growth in MIC/MLC chart [8, 13]: +
- growth in MIC/MLC chart [9, 12]: +
- growth in MIC/MLC chart [9, 14]: +
- growth in MIC/MLC chart [9, 15]: +
- growth in MIC/MLC chart [9, 13]: +
- growth in MIC/MLC chart [9, 16]: +
- growth in MIC/MLC chart [10, 17]: +
- growth in MIC/MLC chart ([10]; Analog Control: analog alone 3.12 μg/ml): +
- growth in MIC/MLC chart ([10]; Analog Control: analog alone 6.25 μg/ml): +
- growth in MIC/MLC chart ([10]; Analog Control: analog alone 12.5 μg/ml): +
- growth in MIC/MLC chart ([10]; Analog Control: analog alone 25.0 μg/ml): +
- growth in MIC/MLC chart ([10]; Analog Control: analog alone 50.00 μg/ml): +
- growth in MIC/MLC chart [10, 12]: +
- growth in MIC/MLC chart [10, 14]: +
- growth in MIC/MLC chart [10, 15]: +
- growth in MIC/MLC chart [10, 18]: +
- growth in MIC/MLC chart [10, 19]: +
- growth in MIC/MLC chart [10, 20]: +
- growth in MIC/MLC chart ([10]; analog 3.12 μg/ml + doxycycline 1.53 μg/ml): +
- growth in MIC/MLC chart ([10]; analog 3.12 μg/ml + doxycycline 3.05 μg/ml): +
- growth in MIC/MLC chart ([10]; analog 3.12 μg/ml + doxycycline 6.1 μg/ml): +
- growth in MIC/MLC chart ([10]; analog 6.25 μg/ml + doxycycline 3.0 μg/ml): +
- growth in MIC/MLC chart ([10]; analog 6.25 μg/ml + doxycycline 5.9 μg/ml): +
- growth in MIC/MLC chart ([10]; analog 6.25 μg/ml + doxycycline […]): +
- growth in MIC/MLC chart ([10]; analog 12.5 μg/ml + doxycycline 2.8 μg/ml): +
- growth in MIC/MLC chart ([10]; analog 12.5 μg/ml + doxycycline 5.5 μg/ml): +
- growth in MIC/MLC chart ([10]; analog 12.5 μg/ml + doxycycline […]): +
- growth in MIC/MLC chart ([10]; analog 25 μg/ml + doxycycline 2.4 μg/ml): +
- growth in MIC/MLC chart ([10]; analog 25 μg/ml + doxycycline 4.7 μg/ml): +
- growth in MIC/MLC chart ([10]; analog 25 μg/ml + doxycycline […]): +
- growth in MIC/MLC chart ([10]; analog 50 μg/ml + doxycycline 1.56 μg/ml): +
- growth in MIC/MLC chart ([10]; analog 50 μg/ml + doxycycline 3.12 μg/ml): +
- growth in MIC/MLC chart ([10]; analog 50 μg/ml + doxycycline .78 μg/ml): +
- growth in MIC/MLC chart [10, 13]: +
- growth in MIC/MLC chart [10, 16]: +
- growth in MIC/MLC chart [10, 21]: +
- growth in MIC/MLC chart [10, 22]: +
- growth in MIC/MLC chart [10, 23]: +
- growth in MIC/MLC chart [10, 24]: +
- growth in MIC/MLC chart [10, 25]: +
- growth in MIC/MLC chart [10, 26]: +
- growth in MIC/MLC chart [10, 27]: +
- growth in MIC/MLC chart [10, 28]: +
- growth in MIC/MLC chart [10, 29]: +
- growth in MIC/MLC chart ([10]; analog .78 μg/ml + doxycycline 12.4 μg/ml): +
- growth in MIC/MLC chart [11, 17]: +
- growth in MIC/MLC chart [11, 12]: +
- growth in MIC/MLC chart [11, 14]: +
- growth in MIC/MLC chart [11, 15]: +
- growth in MIC/MLC chart [11, 18]: +
- growth in MIC/MLC chart [11, 19]: +
- growth in MIC/MLC chart [11, 20]: +
- growth in MIC/MLC chart [11, 13]: +
- growth in MIC/MLC chart [11, 16]: +
- growth in MIC/MLC chart [11, 21]: +
- growth in MIC/MLC chart [11, 22]: +
- growth in MIC/MLC chart [11, 23]: +
- growth in MIC/MLC chart [11, 24]: +
- growth in MIC/MLC chart [11, 25]: +
- growth in MIC/MLC chart [11, 26]: +
- growth in MIC/MLC chart [11, 27]: +
- growth in MIC/MLC chart [11, 28]: +
- growth in MIC/MLC chart [11, 29]: +

Compound: C[C@H]1c2cccc(O)c2C(O)=C2C(=O)[C@]3(O)C(O)=C(C(N)=O)C(=O)[C@@H](N(C)C)[C@@H]3[C@@H](O)[C@@H]21 [Doxy, Doxycycline, reference compound]
- growth in MIC/MLC chart [8, 30]: +
- growth in MIC/MLC chart [8, 31]: +
- growth in MIC/MLC chart [8, 32]: +
- growth in MIC/MLC chart [8, 33]: +
- growth/killing, Doxy Control ([8]; Doxy alone 1.56 μg/ml): +
- growth/killing, Doxy Control ([8]; Doxy alone 3.12 μg/ml): +
- growth/killing, Doxy Control ([8]; Doxy alone 6.25 μg/ml): +
- growth/killing, Doxy Control ([8]; Doxy alone 12.5 μg/ml): +
- growth in MIC/MLC chart [9, 30]: +
- growth in MIC/MLC chart [9, 31]: +
- growth in MIC/MLC chart [9, 32]: +
- growth/killing, Doxy Control ([9]; Doxy alone 1.56 μg/ml): +
- growth/killing, Doxy Control ([9]; Doxy alone 3.12 μg/ml): +
- growth/killing, Doxy Control ([9]; Doxy alone 6.25 μg/ml): +
- growth in MIC/MLC chart [10, 30]: +
- growth in MIC/MLC chart [10, 31]: +
- growth in MIC/MLC chart [10, 32]: +
- growth in MIC/MLC chart [10, 33]: +
- growth in MIC/MLC chart ([10]; Doxy Control: doxycycline alone 25.0 μg/ml): +
- growth/killing, Doxy Control ([10]; Doxy alone 1.56 μg/ml): +
- growth/killing, Doxy Control ([10]; Doxy alone 3.12 μg/ml): +
- growth/killing, Doxy Control ([10]; Doxy alone 6.25 μg/ml): +
- growth/killing, Doxy Control ([10]; Doxy alone 12.5 μg/ml): +
- growth/killing, Doxy Control ([10]; Doxy alone 25.0 μg/ml): +
- growth in MIC/MLC chart [11, 30]: +
- growth in MIC/MLC chart [11, 31]: +
- growth in MIC/MLC chart [11, 32]: +
- growth in MIC/MLC chart [11, 33]: +
- growth/killing, Doxy Control ([11]; Doxy alone 1.56 μg/ml): +
- growth/killing, Doxy Control ([11]; Doxy alone 3.12 μg/ml): +
- growth/killing, Doxy Control ([11]; Doxy alone 6.25 μg/ml): +
- growth/killing, Doxy Control ([11]; Doxy alone 12.5 μg/ml): +

Compound: Cc1ccc(CSCC2c3cccc(O)c3C(=O)C3=C(O)C4(O)C(=O)C(C(N)=O)=C(O)C(N(C)C)C4C(O)C32)cc1 (centres unmarked) [p-Me-Benzyl]
- Ki [1]: 1.2 µg/mL

Compound: CN(C)c1ccc(O)c2c1C[C@H]1C[C@H]3[C@H](N(C)C)C(=O)C(C(N)=O)=C(O)[C@@]3(O)C(=O)C1=C2O [Minocycline, reference compound]
- MIC [2]: <4 µg
- MLC [2]: 20 µg
- MIC [3]: <0.25 µg
- MIC [4]: 6 ± 2 µg
- MLC [4]: 30 ± 10 µg
- MIC [5]: <4 µg
- MLC [5]: <4 µg
- MIC [6]: <0.25 µg
- MIC [7]: 10 µg

Compound: CN(C)C1C(O)=C(C(N)=O)C(=O)C2(O)C(O)=C3C(=O)c4c(O)cccc4C(CSCc4ccc(Cl)cc4)C3C(O)C12 (centres unmarked) [p-Cl-Benzyl]
- Ki [1]: 1.5 µg/mL

Compound: CCCCSCC1c2cccc(O)c2C(=O)C2=C(O)C3(O)C(=O)C(C(N)=O)=C(O)C(N(C)C)C3C(O)C21 (centres unmarked) [Butyl]
- Ki [1]: 0.5 µg/mL
